Data from patent publication US20250387359A1, “COMPOUNDS AND METHODS FOR THE TREATMENT OF PARASITIC INFECTIONS” (THE BOARD OF TRUSTEES OF THE UNIVERSITY OF ILLINOIS, priority 2019, published 2025).
pIC50: −log10 of the molar value. Entries after “also recorded” stand apart in the source; their conditions may differ. Where two headings read alike, the source gives them in different places.

How the values were obtained:
[1] = Compound cytotoxicity assay (WST-1) in HCT-8 cells; type: cell-based, human; details: human; HCT-8 cells, 24 h, WST-1
Experimental: Compound cytotoxicity assay. […] A colorimetric assay using the cell proliferation reagent WST-1 (Roche, USA) for the quantification of cell viability was performed. […] When the cells were confluent, the old medium was replaced with fresh medium with or without varying concentrations of chemical compound. After 24 h of culture, 10 μl of the cell proliferation reagent WST-1, (for quantification of cell viability) was added to each well, mixed and the plates incubated for 1 h at 37 C with 5% CO2 in the dark. […] Molecular Devices, USA).

Cryptosporidium parvum [2] = test: In vitro anti-Cryptosporidium effect in HCT-8 cells (immunofluorescence assay); type: cell-based; details: HCT-8 cells; for pIC50: Cryptosporidium parvum
Experimental: In vitro testing of the anti-Cryptosporidium effect of CpLDH inhibitors. HCT-8 cells were cultured in supplemented RPMI-1640 medium in 96-well plates. When the cells were confluent, old medium was replaced with fresh medium. To one set of wells, varying concentrations of recombinant CpLDH inhibitors (reconstituted in DMSO and diluted in RPMI medium) were added, while another set was left without inhibitors. Paromomycin was used as a positive control drug reconstituted in distilled sterile water. Then, 4×10^4 freshly excysted sporozoites were added to each well and incubated at 37° C. with 5% CO2. After 2 h incubation, varying concentrations of CpLDH inhibitors were added to the set of infected cells that were not treated initially. Control infected cells without inhibitors, but with added DMSO volumes equivalent to those used in the wells with inhibitors, were included. The cells were maintained in culture for a total of either 48 h or 72 h and processed for immunofluorescence assay as previously described (Int. J. Parasitol. 2017; 47(13), 867-874). Briefly, medium was decanted, and the cells fixed with methanol-acetic acid (9:1) for 2 minutes at room temperature. The cells were rehydrated and permeabilized by two successive washes with buffer (0.1% Triton X-100, 0.35 M NaCl, 0.13 M Tris-base, pH 7.6) and blocked with 5% normal goat serum, followed by staining with antibody to C. parvum (SporoGlo; Waterborn, Inc.) overnight at 4° C. The stained cells were washed twice with PBS, followed by water, and then imaged with an inverted fluorescence microscope. Fluorescence quantification was done using ImageJ version 1.37v software (NIH). Assays were performed in triplicate and repeated at least thrice.

Tolerability in mice = type: in vivo; details: daily oral gavage for 7 days, mice
Experimental: In vivo testing of the anti-Cryptosporidium effect of CpLDH inhibitors. Gamma interferon knockout mice (B6.129S7-Ifng), 8 weeks of age, were purchased from Charles River, USA. The care and use of the mice was done following the guidelines of protocol number 17024 approved by the University of Illinois at Urbana-Champaign, USA. The animals were allowed to acclimatize for 1 week before experiments commenced. Stock solutions of recombinant CpLDH inhibitors reconstituted in DMSO were diluted in sterile distilled water to reduce the final amount of DMSO in the solution to less than 1% (v/v) before administering them to mice. Prior to testing the anti-Cryptosporidium effect of the inhibitors in mice, the tolerability of each inhibitor was tested by oral gavage using varying dosages (100-2000 mg/kg body weight) of each inhibitor in groups of mice (three mice for each dose) daily for 7 days. Mice were observed daily for signs of toxicity including changes from normal physical activity, respiration, body temperature, feeding, posture, fur condition or occurrence of death. […] An equivalent volume of PBS containing a cocktail of penicillin (100 units/ml), streptomycin (100 μg/ml), chloramphenicol (34 μg/ml) and amphotericin (0.25 μg/ml) was added to the fecal samples and stored at 4° C. until use for quantification of C. parvum genomic DNA load. […]

C. parvum [3] = test: Real-time PCR quantification of C. parvum DNA in fecal samples of infected mice; type: in vivo, Cryptosporidium parvum; details: for reduction of shedding of C. parvum in mice feces vs untreated infected mice: day 7 post-infection; for fecal C. parvum DNA load: Table 6, infected mice, multiplier printed in next cell
Experimental: In vivo testing of the anti-Cryptosporidium effect of CpLDH inhibitors. Gamma interferon knockout mice (B6.129S7-Ifng), 8 weeks of age, were purchased from Charles River, USA. The care and use of the mice was done following the guidelines of protocol number 17024 approved by the University of Illinois at Urbana-Champaign, USA. The animals were allowed to acclimatize for 1 week before experiments commenced. Stock solutions of recombinant CpLDH inhibitors reconstituted in DMSO were diluted in sterile distilled water to reduce the final amount of DMSO in the solution to less than 1% (v/v) before administering them to mice. Prior to testing the anti-Cryptosporidium effect of the inhibitors in mice, the tolerability of each inhibitor was tested by oral gavage using varying dosages (100-2000 mg/kg body weight) of each inhibitor in groups of mice (three mice for each dose) daily for 7 days. Mice were observed daily for signs of toxicity including changes from normal physical activity, respiration, body temperature, feeding, posture, fur condition or occurrence of death. […] The subsequent dosages of NSC10447 used in the mice infection assays were 250, 500 and 1000 mg/kg mouse body weight, while the NSC158011 dosages used were 100, 200 and 400 mg/kg mouse body weight. Mice were allocated to groups as follows: “Infected plus inhibitor treatment”; “Infected minus inhibitor treatment”; “Uninfected minus inhibitor treatment” and “Infected plus paromomycin treatment”. Each group contained at least three mice. Each mouse in the infection groups received 5,000 C. parvum oocysts (resuspended in 50 μl of PBS) by oral gavage. Mice were housed individually in cages lined with sterile gauze as bedding. One day post-infection (PI), daily oral gavage administration of recombinant CpLDH inhibitor or paromomycin commenced and continued for a total of 7 days. Untreated mice received an equivalent volume of sterile distilled water (containing DMSO equivalent to the amount administered in the inhibitor-treated group) by oral gavage. Fecal pellets were collected daily from each cage and placed in individual sterile 15 ml conical tubes. An equivalent volume of PBS containing a cocktail of penicillin (100 units/ml), streptomycin (100 μg/ml), chloramphenicol (34 μg/ml) and amphotericin (0.25 μg/ml) was added to the fecal samples and stored at 4° C. until use for quantification of C. parvum genomic DNA load. Three independent replicate infection assays were performed. At 9 days PI, mice were euthanized and 5 cm of the distal small intestine resected 2 cm anterior to the cecum and immediately submerged in 4% buffered formalin. The intestinal tissues were submitted for histopathology to the Veterinary Diagnostic Laboratory at the University of Illinois at Urbana-Champaign. Briefly, intestinal tissues preserved in 4% buffered formalin were washed in 70% ethanol and embedded in 1% agar and then processed for paraffin embedding. For hematoxylin and eosin staining, five μm transverse and cross sections were cut and processed and stained following standard procedures of the Veterinary Diagnostic Laboratory. Sections were imaged using a Zeiss microscope and images captured with a color camera.
Quantification of C. parvum shed in mice feces. Genomic DNA was extracted from individual fecal samples collected from mice at different days as described above. For each sample, 220 mg of homogenized feces were used to extract genomic DNA using the QIAamp PowerFecal DNA Kit (Qiagen, USA) following the manufacturer's instructions. Quantification of the amount of C. parvum 18s rRNA gene (GenBank accession number AF164102) was performed essentially as described previously (Int. J. Parasitol. 2018; 48(8), 649-656). Briefly, primers were used to generate a 240 bp amplicon from C. parvum genomic DNA by conventional PCR. […]

C. parvum [4] = test: Histopathology of distal small intestine of C. parvum infected mice; type: in vivo, Cryptosporidium parvum; details: lower small intestine, H&E, NSC158011 400 mg/kg, NSC10447 250, 500 or 1000 mg/kg, paromomycin 100 mg/kg
Experimental: In vivo testing of the anti-Cryptosporidium effect of CpLDH inhibitors. Gamma interferon knockout mice (B6.129S7-Ifng), 8 weeks of age, were purchased from Charles River, USA. The care and use of the mice was done following the guidelines of protocol number 17024 approved by the University of Illinois at Urbana-Champaign, USA. The animals were allowed to acclimatize for 1 week before experiments commenced. Stock solutions of recombinant CpLDH inhibitors reconstituted in DMSO were diluted in sterile distilled water to reduce the final amount of DMSO in the solution to less than 1% (v/v) before administering them to mice. Prior to testing the anti-Cryptosporidium effect of the inhibitors in mice, the tolerability of each inhibitor was tested by oral gavage using varying dosages (100-2000 mg/kg body weight) of each inhibitor in groups of mice (three mice for each dose) daily for 7 days. Mice were observed daily for signs of toxicity including changes from normal physical activity, respiration, body temperature, feeding, posture, fur condition or occurrence of death. […] The subsequent dosages of NSC10447 used in the mice infection assays were 250, 500 and 1000 mg/kg mouse body weight, while the NSC158011 dosages used were 100, 200 and 400 mg/kg mouse body weight. Mice were allocated to groups as follows: “Infected plus inhibitor treatment”; “Infected minus inhibitor treatment”; “Uninfected minus inhibitor treatment” and “Infected plus paromomycin treatment”. Each group contained at least three mice. Each mouse in the infection groups received 5,000 C. parvum oocysts (resuspended in 50 μl of PBS) by oral gavage. Mice were housed individually in cages lined with sterile gauze as bedding. […] An equivalent volume of PBS containing a cocktail of penicillin (100 units/ml), streptomycin (100 μg/ml), chloramphenicol (34 μg/ml) and amphotericin (0.25 μg/ml) was added to the fecal samples and stored at 4° C. until use for quantification of C. parvum genomic DNA load. […]

[5] = molecular target: T1, Plasmodium falciparum phosphoethanolamine methyltransferase enzyme (Plasmodium falciparum, UniProt Q8IDQ9); details: previously shown; cited from earlier work
T1 sequence (Q8IDQ9 1-266): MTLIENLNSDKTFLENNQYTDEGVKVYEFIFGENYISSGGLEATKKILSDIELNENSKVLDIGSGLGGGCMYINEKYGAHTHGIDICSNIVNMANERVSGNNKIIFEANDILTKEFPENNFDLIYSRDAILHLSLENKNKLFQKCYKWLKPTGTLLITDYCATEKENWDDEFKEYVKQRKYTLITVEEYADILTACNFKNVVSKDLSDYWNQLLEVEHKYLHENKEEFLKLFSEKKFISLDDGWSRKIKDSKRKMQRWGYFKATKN

Plasmodium falciparum = details: previously shown; cited from earlier work
Cryptosporidium parvum [6] = details: previously reported by others; read-out: IC50, inhibition of C. parvum growth in HCT-8 cells; cited from earlier work
[7] = molecular target: recombinant CpLDH protein (Cryptosporidium parvum, UniProt Q9GT92, F198L/K295E/R251K); details: previous studies; cited from earlier work
recombinant CpLDH protein, sequence (Q9GT92 whole entry F198L/K295E/R251K): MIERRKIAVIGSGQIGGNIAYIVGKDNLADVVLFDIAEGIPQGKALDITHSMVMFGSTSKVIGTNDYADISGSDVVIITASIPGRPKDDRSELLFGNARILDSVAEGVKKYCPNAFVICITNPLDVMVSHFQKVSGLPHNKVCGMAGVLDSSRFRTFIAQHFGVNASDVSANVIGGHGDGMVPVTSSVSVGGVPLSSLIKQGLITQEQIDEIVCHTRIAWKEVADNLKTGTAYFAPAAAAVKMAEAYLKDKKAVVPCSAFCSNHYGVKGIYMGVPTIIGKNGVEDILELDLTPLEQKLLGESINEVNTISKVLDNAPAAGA

In the case of `S=C(CSc1ccccc1)Nc1cccc2ccccc12` [NSC158011], the IC50 at 24 h [1] was 149 µM, the “effect on parasite growth at 40 μM” value (Cryptosporidium parvum [2]; 48 h post-infection, 40 μM) was “blocking parasite growth almost completely” and the pIC50 (Cryptosporidium parvum [2]; 48 h, compound added at the time of infection, read-out: IC50, inhibition of C. parvum growth at 48 h p.i.) was 4.83. For the same molecule, the pIC50 (Cryptosporidium parvum [2]; 72 h, compound added at the time of infection, read-out: IC50, inhibition of C. parvum growth at 72 h p.i.) was 4.81, the pIC50 (Cryptosporidium parvum [2]; compound added 2 h post-infection, read-out: IC50, inhibition of C. parvum growth at 48 h p.i. (2 h)) was 4.80 and the pIC50 (Cryptosporidium parvum [2]; compound added 2 h post-infection, read-out: IC50, inhibition of C. parvum growth at 72 h p.i. (2 h)) was 4.78. For the same molecule, the “highest tolerable dose (no toxicity signs)” value (Tolerability in mice) was 400 mg/kg, the “efficacy lower than paromomycin” value (C. parvum [3]; NSC158011 200 mg/kg, last three days of treatment) was “about 10 fold” and the “shedding of C. parvum oocysts in mice feces” value (C. parvum [3]; NSC158011 400 mg/kg) was “significantly (P<. 0.05) reduced”. The “reduction of shedding of C. parvum in mice feces vs untreated infected mice” value (C. parvum [3]; NSC158011 400 mg/kg) was “about 3000 fold”, the “histopathology of intestinal epithelium and villi” value (C. parvum [4]) was “maintained intact intestinal mucosa and villi; also recorded: intact intestinal epithelium with prominent villi” and the “inhibition of catalytic activity of P. falciparum phosphoethanolamine methyltransferase” value [5] was “inhibit the catalytic activity”. The “inhibition of in vitro intracellular growth of P. falciparum” value (Plasmodium falciparum) was “inhibit in vitro intracellular growth of the parasite”.
For `NC[C@@H]1O[C@H](O[C@H]2[C@@H](O)[C@H](O[C@@H]3[C@@H](O)[C@H](N)C[C@H](N)[C@H]3O[C@H]3O[C@H](CO)[C@@H](O)[C@H](O)[C@H]3N)O[C@@H]2CO)[C@H](N)[C@@H](O)[C@@H]1O` [paromomycin, reference compound], the pIC50 (Cryptosporidium parvum [2]; 48 h post-infection, positive control, read-out: IC50, inhibition of C. parvum growth) was 3.35, the pIC50 (Cryptosporidium parvum [2]; 72 h post-infection, positive control, read-out: IC50, inhibition of C. parvum growth) was 3.40 and the “fecal C. parvum DNA load” value (C. parvum [3]; paromomycin 100 mg/kg, DPI 1) was 3.1 ± 0.2 ×10^−10 ng/μL. For the same molecule, the “fecal C. parvum DNA load” value (C. parvum [3]; paromomycin 100 mg/kg, DPI 2) was 6.6 ± 0.5 ×10^−9 ng/μL, the “fecal C. parvum DNA load” value (C. parvum [3]; paromomycin 100 mg/kg, DPI 3) was 5.2 ± 0.3 ×10^−9 ng/μL and the “fecal C. parvum DNA load” value (C. parvum [3]; paromomycin 100 mg/kg, DPI 4) was 4.7 ± 0.2 ×10^−8 ng/μL. For the same molecule, the “fecal C. parvum DNA load” value (C. parvum [3]; paromomycin 100 mg/kg, DPI 5) was 5.0 ± 0.6 ×10^−7 ng/μL, the “fecal C. parvum DNA load” value (C. parvum [3]; paromomycin 100 mg/kg, DPI 6) was 4.8 ± 0.1 ×10^−6 ng/μL and the “fecal C. parvum DNA load” value (C. parvum [3]; paromomycin 100 mg/kg, DPI 7) was 5.1 ± 0.8 ×10^−6 ng/μL. For the same molecule, the “fecal C. parvum DNA load” value (C. parvum [3]; paromomycin 100 mg/kg, DPI 8) was 5.4 ± 0.1 ×10^−6 ng/μL, the “reduction of shedding of C. parvum in mice feces vs untreated infected mice” value (C. parvum [3]; paromomycin 100 mg/kg) was “about 3000 fold” and the “histopathology of intestinal epithelium and villi” value (C. parvum [4]) was “intact intestinal epithelium with prominent villi”. The pIC50 (Cryptosporidium parvum [6]) was 3.15.
For `CCCc1c(O)c(O)c(C(=O)O)c2cc(Cc3ccccc3)c(C)cc12` [FX11], the “inhibition of the enzymatic activity of CpLDH” value [7] is given as “able to inhibit the enzymatic activity of CpLDH”.
